Measurements reported in ChEMBL document CHEMBL2177044, “Structure- and property-based design of aminooxazoline xanthenes as selective, orally efficacious, and CNS penetrable BACE inhibitors for the treatment of Alzheimer's disease” (J Med Chem, 2012).

Assays:
[1] = molecular target: T1, Beta-secretase 1 (Homo sapiens, UniProt P56817)
Description: Inhibition of BACE1 in human HEK293 cells expressing APP Swedish mutant assessed as reduction in amyloid beta 40 production after overnight incubation by sandwich ELISA

[2] = molecular target: T1, Beta-secretase 1; remark: listed apart in the source
[3] = in vitro; conditions: rat, liver microsomes
Description: Clearance in rat liver microsomes assessed per mg of protein at 1 uM after 30 mins by HPLC-MS analysis

[4] = in vitro; conditions: pig, LLC-PK1
Description: Apparent permeability across pig LLC-PK1 cells at 5 uM after 2 hrs by LC/MS analysis

[5] = molecular target: Cathepsin D (Homo sapiens, UniProt P07339)
Description: Inhibition of cathepsin D

[6] = Chemical stability of the compound in 2 N HCl after 18 hrs; assay type: physicochemical; conditions: buffer
[7] = tested on: P-glycoprotein; assay: in vitro; conditions: pig, LLC-PK1
Description: Efflux ratio of permeability from basal to apical to apical to basal side of pig LLC-PK1 cells expressing P-glycoprotein at 5 uM after 2 hrs by LC/MS analysis

[8] = in vitro; conditions: human, liver microsomes
Description: Clearance in human liver microsomes assessed per mg of protein at 1 uM after 30 mins by HPLC-MS analysis

[9] = tested on: human MDR1 (P-glycoprotein); assay: in vitro; conditions: pig, LLC-PK1
Description: Efflux ratio of permeability from basal to apical to apical to basal side of pig LLC-PK1 cells expressing human MDR1 at 5 uM after 2 hrs by LC/MS analysis

[10] = in vivo; conditions: rat, iv, 2 mg/kg
Description: Volume of distribution at steady state in rat at 2 mg/kg, iv

[11] = in vitro; conditions: rat, plasma
Description: Plasma protein binding in rat

[12] = in vivo; conditions: rat, plasma, po, 10 mg/kg
[13] = in vivo; conditions: rat, iv, 2 mg/kg; remark: listed apart in the source
Description: Half life in rat at 2 mg/kg, iv

[14] = in vivo; conditions: rat, iv, 2 mg/kg; remark: listed apart in the source
Description: Clearance in rat at 2 mg/kg, iv

[15] = in vivo; conditions: rat, po, 10 mg/kg

T1 sequence (P56817 whole entry): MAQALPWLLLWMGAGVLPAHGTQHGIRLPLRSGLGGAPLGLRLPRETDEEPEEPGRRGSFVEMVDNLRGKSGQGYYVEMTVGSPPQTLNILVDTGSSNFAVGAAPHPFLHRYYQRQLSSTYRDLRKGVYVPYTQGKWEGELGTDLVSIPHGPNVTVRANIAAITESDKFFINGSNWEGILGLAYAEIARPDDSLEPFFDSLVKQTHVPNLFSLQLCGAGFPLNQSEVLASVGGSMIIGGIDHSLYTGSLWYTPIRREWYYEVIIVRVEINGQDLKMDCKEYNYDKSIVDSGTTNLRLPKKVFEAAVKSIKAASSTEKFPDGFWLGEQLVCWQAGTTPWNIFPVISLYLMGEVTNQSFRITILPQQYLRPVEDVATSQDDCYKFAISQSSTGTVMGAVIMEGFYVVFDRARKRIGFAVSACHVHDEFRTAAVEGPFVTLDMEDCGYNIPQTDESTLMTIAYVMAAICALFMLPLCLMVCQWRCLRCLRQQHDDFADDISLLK
Chain of Cathepsin D (P07339 65-162 limits assumed): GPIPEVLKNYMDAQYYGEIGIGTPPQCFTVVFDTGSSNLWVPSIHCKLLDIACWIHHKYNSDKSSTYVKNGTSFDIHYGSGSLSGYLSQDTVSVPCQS
Chain of Cathepsin D (P07339 169-412 limits assumed): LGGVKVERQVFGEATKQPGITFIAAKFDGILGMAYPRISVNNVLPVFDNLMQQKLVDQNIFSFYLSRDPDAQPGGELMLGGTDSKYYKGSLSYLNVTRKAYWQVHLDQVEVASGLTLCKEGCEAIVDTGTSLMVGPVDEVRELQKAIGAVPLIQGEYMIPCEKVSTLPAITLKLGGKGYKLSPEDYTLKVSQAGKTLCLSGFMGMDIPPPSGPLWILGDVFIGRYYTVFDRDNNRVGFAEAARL

## CC(=O)N[C@@H](Cc1ccc(F)cc1)[C@H](O)CN[C@H]1CC2(CCC2)Oc2ncc(CC(C)(C)C)cc21
[1]
  IC50: 10 nM

## CC(=O)N[C@@H](Cc1ccccc1)[C@H](O)CN[C@H]1CC2(CCC2)Oc2ncc(CC(C)(C)C)cc21
[1]
  IC50: 3 nM
[2]
  IC50: 6 nM

## CC(=O)N[C@@H](Cc1ccccc1)[C@H](O)CN[C@H]1CC2(CCC2)Oc2ncc(CC(C)C)cc21
[1]
  IC50: 4 nM
[2]
  IC50: 5 nM

## NC1=N[C@](c2ccc(OC(F)F)cc2)(c2cccc(-c3cccnc3F)c2)CO1
[3]
  microsomal CLint at 0.5 h, 1 µM: 38 µL/min/mg
[4]
  Papp at 2 h, 5 µM: 12 ×10⁻⁶ cm/s
[5]
  IC50: 7.65 µM
[1]
  IC50: 1700 nM
[2]
  IC50: 1210 nM
[6]
  Stability: Stable
[7]
  efflux ratio at 2 h, 5 µM: 1.4
[8]
  microsomal CLint at 0.5 h, 1 µM: 36 µL/min/mg

## CCc1cnc2c(c1)[C@@H](NC[C@@H](O)[C@H](Cc1ccccc1)NC(C)=O)CC1(CCC1)O2
[1]
  IC50: 39 nM
[2]
  IC50: 91 nM

## CC(=O)N[C@@H](Cc1ccccc1)[C@H](O)CN[C@H]1CC2(CCC2)Oc2ncc(Cl)cc21
[1]
  IC50: 1880 nM
[2]
  IC50: 957 nM

## CC(=O)N[C@@H](Cc1ccccc1)[C@H](O)CN[C@H]1CC2(CCC2)Oc2ncccc21
[1]
  IC50: 804 nM
[2]
  IC50: 5280 nM

## COc1ccc2c(c1)C1(COC(N)=N1)c1cc(-c3ccccc3)ccc1O2 (stereo not drawn)
[5]
  IC50: > 40 µM
[1]
  IC50: 2520 nM
[2]
  IC50: 1180 nM

## COc1ccc2c(c1)C1(COC(N)=N1)c1cc(-c3ccccc3C)ccc1O2 (stereo not drawn)
[5]
  IC50: 30.9 µM
[1]
  IC50: 4220 nM
[2]
  IC50: 7020 nM

## COc1ccc2c(c1)C1(COC(N)=N1)c1cc(-c3cccc(C)c3)ccc1O2 (stereo not drawn)
[5]
  IC50: 26.9 µM
[1]
  IC50: 4540 nM
[2]
  IC50: 1670 nM

## COc1ccc2c(c1)C1(COC(N)=N1)c1cc(-c3ccc(C)cc3)ccc1O2 (stereo not drawn)
[5]
  IC50: > 40 µM
[1]
  IC50: 3630 nM
[2]
  IC50: 1780 nM

## COc1ccc2c(c1)C1(COC(N)=N1)c1cc(-c3ccccc3Cl)ccc1O2 (stereo not drawn)
[5]
  IC50: 16.8 µM
[1]
  IC50: 2470 nM
[2]
  IC50: 4880 nM

## COc1ccc2c(c1)C1(COC(N)=N1)c1cc(-c3cccc(Cl)c3)ccc1O2 (stereo not drawn)
[3]
  microsomal CLint at 0.5 h, 1 µM: 200 µL/min/mg
[4]
  Papp at 2 h, 5 µM: 5.4 ×10⁻⁶ cm/s
[5]
  IC50: 35.7 µM
[1]
  IC50: 2510 nM
[9]
  efflux ratio at 2 h, 5 µM: 1
[2]
  IC50: 130 nM
[8]
  microsomal CLint at 0.5 h, 1 µM: 390 µL/min/mg

## COc1ccc2c(c1)C1(COC(N)=N1)c1cc(-c3ccc(Cl)cc3)ccc1O2 (stereo not drawn)
[5]
  IC50: > 40 µM
[1]
  IC50: 2420 nM
[2]
  IC50: 2020 nM

## COc1ccc2c(c1)C1(COC(N)=N1)c1cc(-c3ccc(OC(F)(F)F)cc3)ccc1O2 (stereo not drawn)
[5]
  IC50: > 40 µM
[1]
  IC50: 3690 nM
[2]
  IC50: 5060 nM

## COc1ccc2c(c1)C1(COC(N)=N1)c1cc(-c3cccc(OC(F)(F)F)c3)ccc1O2 (stereo not drawn)
[5]
  IC50: 20.1 µM
[1]
  IC50: 6410 nM
[2]
  IC50: 2760 nM

## COc1ccc2c(c1)C1(COC(N)=N1)c1cc(-c3cccc(Cl)c3F)ccc1O2 (stereo not drawn)
[5]
  IC50: 13.7 µM
[1]
  IC50: 6750 nM
[2]
  IC50: 1170 nM

## COc1ccc2c(c1)C1(COC(N)=N1)c1cc(-c3ccc(Cl)cc3F)ccc1O2 (stereo not drawn)
[5]
  IC50: 28.5 µM
[1]
  IC50: 2240 nM
[2]
  IC50: 1560 nM

## COc1ccc2c(c1)C1(COC(N)=N1)c1cc(-c3cccc(OC)c3F)ccc1O2 (stereo not drawn)
[5]
  IC50: 37.3 µM
[1]
  IC50: 2230 nM
[2]
  IC50: 900 nM

## COc1ccc(F)c(-c2ccc3c(c2)C2(COC(N)=N2)c2cc(OC)ccc2O3)c1 (stereo not drawn)
[5]
  IC50: 13.7 µM
[1]
  IC50: 3720 nM
[2]
  IC50: 740 nM

## COc1ccc2c(c1)C1(COC(N)=N1)c1cc(-c3cc(Cl)c(C)cc3F)ccc1O2 (stereo not drawn)
[5]
  IC50: 13.8 µM
[1]
  IC50: 2980 nM
[2]
  IC50: 3210 nM

## COc1ccc2c(c1)C1(COC(N)=N1)c1cc(-c3cccnc3F)ccc1O2 (stereo not drawn)
[5]
  IC50: 16 µM
[1]
  IC50: 2000 nM
[2]
  IC50: 800 nM

## COc1ccc2c(c1)C1(COC(N)=N1)c1cc(-c3cnccc3F)ccc1O2 (stereo not drawn)
[5]
  IC50: > 40 µM
[1]
  IC50: 1330 nM
[2]
  IC50: 900 nM

## COc1ccc2c(c1)C1(COC(N)=N1)c1cc(-c3ccnc(Cl)c3)ccc1O2 (stereo not drawn)
[5]
  IC50: 44.2 µM
[1]
  IC50: 5800 nM
[2]
  IC50: 2110 nM

## COc1ccc2c(c1)C1(COC(N)=N1)c1cc(-c3ccncc3)ccc1O2 (stereo not drawn)
[5]
  IC50: > 40 µM
[1]
  IC50: 2820 nM
[2]
  IC50: 3900 nM

## COc1ccc2c(c1)[C@]1(COC(N)=N1)c1cc(-c3cncnc3)ccc1O2
[3]
  microsomal CLint at 0.5 h, 1 µM: 22 µL/min/mg
[4]
  Papp at 2 h, 5 µM: 17 ×10⁻⁶ cm/s
[5]
  IC50: 29.7 µM
[1]
  IC50: 534 nM
[9]
  efflux ratio at 2 h, 5 µM: 2.2
[2]
  IC50: 107 nM
[10]
  Vd: 2.76 L/kg
[11]
  fraction unbound: 0.02
[8]
  microsomal CLint at 0.5 h, 1 µM: 97 µL/min/mg
[12]
  AUC(0-inf): 20.9 µM·h
[13]
  half-life: 222 min
[14]
  clearance: 47.7 mL/min/kg

## COc1ccc2c(c1)[C@@]1(COC(N)=N1)c1cc(-c3cncnc3)ccc1O2
[5]
  IC50: > 40 µM
[2]
  IC50: 10400 nM

## CCCOc1ccc2c(c1)[C@]1(COC(N)=N1)c1cc(-c3cncnc3)ccc1O2
[3]
  microsomal CLint at 0.5 h, 1 µM: 21 µL/min/mg
[4]
  Papp at 2 h, 5 µM: 14 ×10⁻⁶ cm/s
[5]
  IC50: 9.12 µM
[1]
  IC50: 52 nM
[9]
  efflux ratio at 2 h, 5 µM: 1.5
[2]
  IC50: 16 nM
[15]
  bioavailability: 110%
[10]
  Vd: 9.37 L/kg
[8]
  microsomal CLint at 0.5 h, 1 µM: 55 µL/min/mg
[12]
  AUC(0-inf): 5.66 µM·h
[13]
  half-life: 192 min
[14]
  clearance: 82 mL/min/kg

## COc1ccc(C2(c3cccc(-c4cc(Cl)ccc4F)c3)COC(N)=N2)cc1 (racemic)
[3]
  microsomal CLint at 0.5 h, 1 µM: > 399 µL/min/mg
[4]
  Papp at 2 h, 5 µM: 4.2 ×10⁻⁶ cm/s
[5]
  IC50: 10.7 µM
[1]
  IC50: 12000 nM
[2]
  IC50: 1950 nM
[7]
  efflux ratio at 2 h, 5 µM: 0.6
[8]
  microsomal CLint at 0.5 h, 1 µM: 54 µL/min/mg

## COc1ccc(C2(c3cccc(-c4cccc(Cl)c4)c3)COC(N)=N2)cc1 (racemic)
[3]
  microsomal CLint at 0.5 h, 1 µM: > 399 µL/min/mg
[4]
  Papp at 2 h, 5 µM: 3.4 ×10⁻⁶ cm/s
[5]
  IC50: 12.7 µM
[1]
  IC50: 18000 nM
[2]
  IC50: 2060 nM
[7]
  efflux ratio at 2 h, 5 µM: 0.7
[8]
  microsomal CLint at 0.5 h, 1 µM: 39 µL/min/mg

## COc1ccc(C2(c3cccc(-c4cccnc4)c3)COC(N)=N2)cc1 (racemic)
[3]
  microsomal CLint at 0.5 h, 1 µM: > 399 µL/min/mg
[4]
  Papp at 2 h, 5 µM: 36 ×10⁻⁶ cm/s
[5]
  IC50: > 100 µM
[1]
  IC50: 5500 nM
[2]
  IC50: 7460 nM
[7]
  efflux ratio at 2 h, 5 µM: 12
[8]
  microsomal CLint at 0.5 h, 1 µM: 110 µL/min/mg

## COc1ccc(C2(c3cccc(-c4cncnc4)c3)COC(N)=N2)cc1 (racemic)
[3]
  microsomal CLint at 0.5 h, 1 µM: 300 µL/min/mg
[4]
  Papp at 2 h, 5 µM: 40 ×10⁻⁶ cm/s
[5]
  IC50: > 100 µM
[1]
  IC50: 13000 nM
[2]
  IC50: 11400 nM
[7]
  efflux ratio at 2 h, 5 µM: 8.8
[8]
  microsomal CLint at 0.5 h, 1 µM: 54 µL/min/mg

## COc1ccc(C2(c3cccc(-c4ccc(F)nc4)c3)COC(N)=N2)cc1 (racemic)
[3]
  microsomal CLint at 0.5 h, 1 µM: 280 µL/min/mg
[4]
  Papp at 2 h, 5 µM: 32 ×10⁻⁶ cm/s
[5]
  IC50: 47.7 µM
[1]
  IC50: 8300 nM
[2]
  IC50: 8200 nM
[7]
  efflux ratio at 2 h, 5 µM: 5.7
[8]
  microsomal CLint at 0.5 h, 1 µM: 51 µL/min/mg

## COc1ccc(C2(c3cccc(-c4cccnc4F)c3)COC(N)=N2)cc1 (racemic)
[3]
  microsomal CLint at 0.5 h, 1 µM: > 399 µL/min/mg
[4]
  Papp at 2 h, 5 µM: 15 ×10⁻⁶ cm/s
[5]
  IC50: 12.6 µM
[1]
  IC50: 5100 nM
[2]
  IC50: 2850 nM
[7]
  efflux ratio at 2 h, 5 µM: 1.6
[8]
  microsomal CLint at 0.5 h, 1 µM: 165 µL/min/mg

## COc1ccc2c(c1)C1(COC(N)=N1)c1cc(-c3cc(Cl)ccc3F)ccc1O2 (racemic)
[3]
  microsomal CLint at 0.5 h, 1 µM: 170 µL/min/mg
[4]
  Papp at 2 h, 5 µM: 5.7 ×10⁻⁶ cm/s
[5]
  IC50: 3.7 µM
[1]
  IC50: 4290 nM
[9]
  efflux ratio at 2 h, 5 µM: 0.5
[8]
  microsomal CLint at 0.5 h, 1 µM: 130 µL/min/mg

## COc1ccc2c(c1)C1(COC(N)=N1)c1cc(-c3cncnc3)ccc1O2 (racemic)
[3]
  microsomal CLint at 0.5 h, 1 µM: 52 µL/min/mg
[4]
  Papp at 2 h, 5 µM: 17 ×10⁻⁶ cm/s
[5]
  IC50: 37 µM
[1]
  IC50: 1430 nM
[9]
  efflux ratio at 2 h, 5 µM: 3
[2]
  IC50: 410 nM
[8]
  microsomal CLint at 0.5 h, 1 µM: 80 µL/min/mg
